Laboratory results reported in patent US9067934B2, “Bicyclic pyridinones” (Pfizer Inc., priority 2011, dated 2015).
Counter-ions that a name gives are not always drawn.

Tested on: production of amyloid beta protein Aβ(1-42) (γ-secretase) in human WT-APP overexpressing CHO cells
Assay: Cell-Based γ-Secretase Assay with ELISA Readout
Details: human WT-APP overexpressing CHO cells, ~24 hours at 37° C., Aβ(1-42) ELISA; footnotes: a = geometric mean of >15 determinations, b = single determination, c = geometric mean of 7-15 determinations; read-out: Aβ 42B IC50 (Geometric Mean of 2-6 Determinations)
Protocol: Cell-Based γ-Secretase Assay with ELISA Readout
The ability of compounds to modulate production of amyloid beta protein Aβ(1-42) was determined using human WT-APP overexpressing CHO cells. Cells were plated at 22,000 cells/100 μL well in 96 well tissue culture treated, clear plates (Falcon) in DMEM/F12 based medium and incubated for 24 hours at 37° C. Compounds for testing were diluted in 100% DMSO to achieve an eleven points, half log, dose response for IC50 determinations. Compounds were added in fresh medium to achieve 1% final DMSO. Appropriate vehicle or inhibitor controls were added into control wells individually to obtain minimum or maximum inhibition values, respectively, for the assay signal window before the plates were incubated for ˜24 hours at 37° C. This procedure produces conditioned media in each well which is tested for Aβ(1-42) levels in the ELISA detection step described next. The remaining cell cultures in each well are also tested for cell toxicity as described below.
Coating of ELISA assay plates was initiated by addition of 50 μL/well of an in-house Aβ(1-42) specific antibody at (3 μg/mL) in 0.1 M NaHCO3 (pH 9.0) into black 384-well Maxisorp® plates (Nunc) and incubated overnight at 4° C. The capture antibody was then aspirated from the ELISA assay plates and plates were washed 4×100 μL with Wash Buffer (Dulbecco's PBS, 0.05% Tween 20). 90 μL/well of Blocking Buffer (Dulbecco's PBS, 1.0% BSA (Sigma A7030)) was then added to plates. Ambient temperature incubation was allowed to proceed for a minimum of two hours. Blocking buffer was then removed and 20 μL/well Assay Buffer (Dulbecco's PBS, 1.0% BSA (Sigma A7030), 0.05% Tween 20) was then added. At this point, 40 μL (in duplicate) of experimental conditioned media (described above) were transferred into wells of the blocked ELISA plates containing the capture antibody, followed by overnight incubation at 4° C. Cell toxicity was also measured in the corresponding remaining cells after removal of the conditioned media for the Aβ(1-42) assay by a colorimetric cell proliferation assay (CellTiter 96® AQueous One Solution Cell Proliferation Assay, Promega) according to the manufacturer's instructions.
After overnight incubation of the ELISA assay plates at 4° C., unbound Aβ peptides were removed via (4×100 μL) washes with Wash Buffer. Europium (Eu) labeled (custom labeled, Perkin Elmer) Aβ(1-16) 6e10 Monoclonal Antibody (Covance #SIG-39320) was added, (50 μL/well Eu-6e10 @ 1:10,000, 20 uM EDTA) in Assay Buffer. Incubation at ambient temperature for a minimum of 2 hours was followed by (4×100 μL) washes with Wash Buffer, before 30 μL/well of Delfia Enhancement Solution (Perkin Elmer) was added. Following an one hour ambient temperature incubation, the plates were read on an EnVision plate reader (Perkin Elmer) using standard DELFIA TRF settings. Data analysis including inhibitory IC50 determination was performed using nonlinear regression fit analysis (in-house software) and the appropriate plate mean values for the maximum and minimum inhibition controls.

Compound | IC50 [nM]
Cc1cn(-c2ccc3n(c2=O)CCN(CCOc2cc(C(F)(F)F)nc4cc(Cl)ccc24)C3=O)cn1 [Example 84, 2-(2-{[7-chloro-2-(trrfluoromethyl)quinolin-4-yl]oxy}ethyl)-7-(4-methyl-1H-imidazol-1-yl)-3,4-dihydro-2H-pyrido[1,2-a]pyrazine-1,6-dione] | 71.5
Cc1cn(-c2ccc3n(c2=O)CCN(CCOc2cccc4c2OC(F)(F)O4)C3=O)cn1 [Example 109, 2-{2-[(2,2-difluoro-1,3-benzodioxol-4-yl)oxy]ethyl}-7-(4-methyl-1H-imidazol-1-yl)-3,4-dihydro-2H-pyrido[1,2-a]pyrazine-1,6-dione] | 275
C#CCCCOc1ccc(C(=O)c2cccc(OCCN3CCn4c(ccc(-n5cnc(C)c5)c4=O)C3=O)c2)cc1 [Example 70, 7-(4-methyl-1H-imidazol-1-yl)-2-(2-{3-[4-(pent-4-yn-1-yloxy)benzoyl]phenoxy}ethyl)-3,4-dihydro-2H-pyrido[1,2-a]pyrazine-1,6-dione] | 135
COc1ccc(OCCN2CCn3c(ccc(-n4cnc(C)c4)c3=O)C2=O)c2ccccc12 [Example 8, 2-{2-[(4-methoxy-1-naphthyl)oxy]ethyl}-7-(4-methyl-1H-imidazol-1-yl)-3,4-dihydro-2H-pyrido[1,2-a]pyrazine-1,6-dione] | 93
Cc1cccc(-c2ccccc2OCCN2CCn3c(ccc(-n4cnc(C)c4)c3=O)C2=O)c1 [Example 95, 2-{2-[(3′-methylbiphenyl-2-yl)oxy]ethyl}-7-(4-methyl-1H-imidazol-1-yl)-3,4-dihydro-2H-pyrido[1,2-a]pyrazine-1,6-dione, formate salt] | 143
Cc1cn(-c2ccc3n(c2=O)CCN(CCOc2ccnc4cc(C(F)(F)F)c(Cl)cc24)C3=O)cn1 [Example 47, 2-(2-{[6-chloro-7-(trifluoromethyl)quinolin-4-yl]oxy}ethyl)-7-(4-methyl-1H-imidazol-1-yl)-3,4-dihydro-2H-pyrido[1,2-a]pyrazine-1,6-dione] | 9.48
Cc1cn(-c2ccc3n(c2=O)CCN(CCOc2cc(C(F)(F)F)nc4c(C)cc(Cl)cc24)C3=O)cn1 [Example 62, 2-(2-{[6-chloro-8-methyl-2-(trifluoromethyl)quinolin-4-yl]oxy}ethyl)-7-(4-methyl-1H-imidazol-1-yl)-3,4-dihydro-2H-pyrido[1,2-a]pyrazine-1,6-dione] | 39.7
Cc1cn(-c2ccc3n(c2=O)CCN(CCOc2cc(C(F)(F)F)nc4c(Cl)cccc24)C3=O)cn1 [Example 63, 2-(2-{[8-chloro-2-(trifluoromethyl)quinolin-4-yl]oxy}ethyl)-7-(4-methyl-1H-imidazol-1-yl)-3,4-dihydro-2H-pyrido[1,2-a]pyrazine-1,6-dione] | 76.6
Cc1cn(-c2ccc3n(c2=O)CCN(CCOc2ccc(F)cc2C(C)(C)C(F)(F)F)C3=O)cn1 [Example 105, 2-{2-[4-fluoro-2-(1,1,1-trifluoro-2-methylpropan-2-yl)phenoxy]ethyl}-7-(4-methyl-1H-imidazol-1-yl)-3,4-dihydro-2H-pyrido[1,2-a]pyrazine-1,6-dione] | 25.2
Cc1cn(-c2ccc3n(c2=O)CCN(CCOc2cc(C(F)(F)F)nc4c(Cl)ccc(F)c24)C3=O)cn1 [Example 66, 2-(2-{[8-chloro-5-fluoro-2-(trifluoromethyl)quinolin-4-yl]oxy}ethyl)-7-(4-methyl-1H-imidazol-1-yl)-3,4-dihydro-2H-pyrido[1,2-a]pyrazine-1,6-dione] | 52.4
Cc1cn(-c2ccc3n(c2=O)CCN(CCOc2ccc(F)c4oc5ccccc5c24)C3=O)cn1 [Example 87, 2-{2-[(4-fluorodibenzo[b,d]furan-1-yl)oxy]ethyl}-7-(4-methyl-1H-imidazol-1-yl)-3,4-dihydro-2H-pyrido[1,2-a]pyrazine-1,6-dione] | 22.8
Cc1cn(-c2ccc3n(c2=O)CCN(C(C)COc2ccc(F)cc2C(F)(F)F)C3=O)cn1 (centres unmarked) [Example 55, 2-{2-[4-fluoro-2-(trifluoromethyl)phenoxy]-1-methylethyl}-7-(4-methyl-1H-imidazol-1-yl)-3,4-dihydro-2H-pyrido[1,2-a]pyrazine-1,6-dione, formate salt] | 168
COc1ccc2cccc(OCCN3CCn4c(ccc(-n5cnc(C)c5)c4=O)C3=O)c2c1 [Example 7, 2-{2-[(7-methoxy-1-naphthyl)oxy]ethyl}-7-(4-methyl-1H-imidazol-1-yl)-3,4-dihydro-2H-pyrido[1,2-a]pyrazine-1,6-dione] | 42
Cc1cn(-c2ccc3n(c2=O)CCN(CCOc2cccc4cc(F)c(F)cc24)C3=O)cn1 [Example 96, 2-{2-[(6,7-difluoronaphthalen-1-yl)oxy]ethyl}-7-(4-methyl-1H-imidazol-1-yl)-3,4-dihydro-2H-pyrido[1,2-a]pyrazine-1,6-dione, trifluoroacetate salt] | 48.2
Cc1cn(-c2ccc3n(c2=O)CCN([C@@H](C)COc2ccc(Cl)cc2C(F)(F)F)C3=O)cn1 [Example 107, 2-{(2S)-1-[4-chloro-2-(trifluoromethyl)phenoxy]propan-2-yl}-7-(4-methyl-1H-imidazol-1-yl)-3,4-dihydro-2H-pyrido[1,2-a]pyrazine-1,6-dione] | 34.4
Cc1cn(-c2ccc3n(c2=O)CCN(CCOc2ccc(F)cc2-n2ccc(C(F)(F)F)n2)C3=O)cn1 [Example 85, 2-(2-{4-fluoro-2-[3-(trifluoromethyl)-1H-pyrazol-1-yl]phenoxy}ethyl)-7-(4-methyl-1H-imidazol-1-yl)-3,4-dihydro-2H-pyrido[1,2-a]pyrazine-1,6-dione] | 106
Cc1cn(-c2ccc3n(c2=O)CCN(C(C)C(C)Oc2ccccc2S(F)(F)(F)(F)F)C3=O)cn1 (single isomer, unassigned) [Example 127, 7-(4-methyl-1H-imidazol-1-yl)-2-{3-[2-(pentafluoro-λ^6-sulfanyl)phenoxy]butan-2-yl}-3,4-dihydro-2H-pyrido[1,2-a]pyrazine-1,6-dione] | 1070
Cc1cn(-c2ccc3n(c2=O)CCN(CCOc2cnc(C(F)(F)F)c4ccccc24)C3=O)cn1 [Example 86, 7-(4-methyl-1H-imidazol-1-yl)-2-(2-{[1-(trifluoromethyl)isoquinolin-4-yl]oxy}ethyl)-3,4-dihydro-2H-pyrido[1,2-a]pyrazine-1,6-dione, trifluoroacetate salt] | 107
Cc1cn(-c2ccc3n(c2=O)CCN([C@@H](C)COc2ccc(F)cc2[C@@H](C)C(F)(F)F)C3=O)cn1 [Example 118, 2-[(2S)-1-{4-Fluoro-2-[(2R)-1,1,1-trifluoropropan-2-yl]phenoxy}propan-2-yl]-7-(4-methyl-1H-imidazol-1-yl)-3,4-dihydro-2H-pyrido[1,2-a]pyrazine-1,6-dione] | < 6.64
COc1cccc2c(OCCN3CCn4c(ccc(-n5cnc(C)c5)c4=O)C3=O)cccc12 [Example 60, 2-{2-[(5-methoxy-1-naphthyl)oxy]ethyl}-7-(4-methyl-1H-imidazol-1-yl)-3,4-dihydro-2H-pyrido[1,2-a]pyrazine-1,6-dione, trifluoroacetate salt] | 33.3
Cc1cn(-c2ccc3n(c2=O)CCN(CCOc2ccc(Cl)cc2C(C)(C)O)C3=O)cn1 [Example 44, 2-{2-[4-chloro-2-(1-hydroxy-1-methylethyl)phenoxy]ethyl}-7-(4-methyl-1H-imidazol-1-yl)-3,4-dihydro-2H-pyrido[1,2-a]pyrazine-1,6-dione, trifluoroacetate salt] | 142
Cc1cn(-c2ccc3n(c2=O)CCN(CCOc2noc4ccc(Cl)cc24)C3=O)cn1 [Example 82, 2-{2-[(5-chloro-1,2-benzisoxazol-3-yl)oxy]ethyl}-7-(4-methyl-1H-imidazol-1-yl)-3,4-dihydro-2H-pyrido[1,2-a]pyrazine-1,6-dione] | 209
Cc1cn(-c2ccc3n(c2=O)CCN(CCOc2cccc4c2CCC4)C3=O)cn1 [Example 16, 2-[2-(2,3-dihydro-1H-inden-4-yloxy)ethyl]-7-(4-methyl-1H-imidazol-1-yl)-3,4-dihydro-2H-pyrido[1,2-a]pyrazine-1,6-dione] | 234
